Consider 1 molecule from patent US20150051296A1, “USE OF FATTY ACID TO REDUCE SKIN IRRITATION ASSOCIATED WITH RETINOID THERAPY” (Access Business Group Internaional LLC, priority 2013, published 2015).

The test system of experiment [1] is retinoic acid response element (RARE) construct. Nature of the experiment: RARE reporter assay in stably transfected human kidney cells. Conditions: oleic acid about 0, 25, 50, 100, 200 μM, FIG. 3. It counts as cell-based. The procedure:
Human kidney cells were stably transfected with a retinoic acid response element (RARE) construct. The transfected cells were exposed to increasing amounts of retinoic acid (from about 0.005 μM to about 10 μM) in the presence of increasing amounts of oleic acid (about 0 μM, about 25 μM, about 50 μM, about 100 μM, and about 200 μM), and the response was measured in relative light units (RLUs).
A general note: A reporter such as luciferase makes a cellular process visible.

Experiment [2] concerns peroxisome proliferator activated receptor (PPAR). Description: PPAR luciferase reporter assay in stably transfected Chinese hamster ovary cells. It counts as cell-based. The note with it: about 0 to about 100 μg/mL, FIG. 5. The procedure:
Chinese hamster ovary cells were stably transfected with peroxisome proliferator activated receptor (PPAR) construct and luciferase reporter vector. […] The response was measured in relative light units (RLUs).

Consider `CCCCCCCC/C=C\CCCCCCCC(=O)O` [oleic acid], for which, in experiment [1], the “effect of the fatty acid on retinoic acid activation of the retinoic acid receptor” value is on record as “did not affect retinoic acid activation of the retinoic acid receptor”. Further, in experiment [2], the “response (RLUs) of PPAR-transfected cells” value is given as “responded in a dose dependent manner”.
